Test results as given in patent publication US20260055126A1, “SMALL MOLECULE COMPOUNDS WITH PHOSPHORYLATED ARYL STRUCTURES AND USE THEREOF” (HANGZHOU PHECDAMED CO., LTD., priority 2022, published 2026).

What was measured:
Format in all cases: binding
Settings in all cases: 10 μM TEAD protein, 50 μM test compound
[1] = target: recombinant TEAD3 protein (218-435, Uniprot ID: Q99594) (Homo sapiens (Human), UniProt Q99594); assay: Thermal shift assay (protein melting point curve), TEAD3
Experimental: (§1) The ability of the compounds to increase the melting point of purified recombinant TEAD1/2/3/4 proteins is tested using a thermal shift assay. The strength of the compound's binding to the protein and the selectivity of the compound's binding to the four TEAD subtypes are evaluated by calculating the melting point shift ΔTm−° C. […] Based on the Δ Tm value, the ability of the compound to bind to the TEAD protein is divided into four levels: ++++, +++, ++, +.
(§2) Test method of protein melting point curve: 10 μL of the protein melting point curve experimental system (10 μM TEAD protein, 50 μM test compound, SYPRO® orange (55692, sigma)) is prepared in a 384-well fluorescence quantitative PCR plate according to the following system, and reacted at 4° C. in the dark for 20 minutes. On-machine reaction: ABI QuantStudio Dx fluorescence quantitative PCR instrument; program: from 25° C. to 80° C., increasing the temperature at a rate of 0.05° C./s, and reading the fluorescence channel signal of the corresponding wavelength of SYPRO® orange every second.

[2] = target: recombinant TEAD2 protein (218-447, Uniprot ID: Q15562) (Homo sapiens (Human), UniProt Q15562); assay: Thermal shift assay (protein melting point curve), TEAD2
Experimental: as §1, §2

[3] = system: recombinant TEAD1 protein (194-411, Uniprot ID: P28347); assay: Thermal shift assay (protein melting point curve), TEAD1; set-up: key to the marks not given beside the values
Experimental: as §1, §2

[4] = target: recombinant TEAD4 protein (217-434, Uniprot ID: Q15561) (Homo sapiens (Human), UniProt Q15561); assay: Thermal shift assay (protein melting point curve), TEAD4
Experimental: as §1, §2

recombinant TEAD4 protein (217-434, Uniprot ID: Q15561), sequence (Q15561 217-434): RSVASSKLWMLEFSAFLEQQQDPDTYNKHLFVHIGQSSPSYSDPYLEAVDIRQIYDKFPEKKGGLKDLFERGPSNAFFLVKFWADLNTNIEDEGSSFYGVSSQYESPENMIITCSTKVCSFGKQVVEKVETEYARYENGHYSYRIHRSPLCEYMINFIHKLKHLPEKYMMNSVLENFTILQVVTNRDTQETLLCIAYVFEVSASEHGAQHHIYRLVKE
recombinant TEAD2 protein (218-447, Uniprot ID: Q15562), sequence (Q15562 218-447): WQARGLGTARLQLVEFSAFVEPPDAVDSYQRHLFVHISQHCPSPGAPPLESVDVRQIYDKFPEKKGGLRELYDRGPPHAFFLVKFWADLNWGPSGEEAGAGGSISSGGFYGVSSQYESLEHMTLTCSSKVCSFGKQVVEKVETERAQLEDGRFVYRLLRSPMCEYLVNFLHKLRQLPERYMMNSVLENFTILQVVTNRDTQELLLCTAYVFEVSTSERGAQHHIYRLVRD
recombinant TEAD3 protein (218-435, Uniprot ID: Q99594), sequence (Q99594 218-435): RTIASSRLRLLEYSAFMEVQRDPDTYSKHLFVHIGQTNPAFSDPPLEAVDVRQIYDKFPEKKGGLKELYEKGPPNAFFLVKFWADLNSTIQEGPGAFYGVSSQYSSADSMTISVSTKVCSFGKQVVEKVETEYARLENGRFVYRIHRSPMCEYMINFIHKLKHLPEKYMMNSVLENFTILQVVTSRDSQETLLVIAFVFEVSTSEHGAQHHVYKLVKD

Structure (SMILES) | Δ T m (TEAD3) [1] | Δ T m (TEAD2) [2] | Δ T m (TEAD1) [3] | Δ T m (TEAD4) [4]
CP(C)(=O)c1ccc(Nc2ccc(C(F)(F)F)cc2)c(-c2cnn(C3COC3)c2)c1 [Compound 15] | ++ | ++ | +++ | +++
CP(C)(=O)c1ccc(Nc2ccc(C(F)(F)F)cc2)c(-c2cnn(C3CCOCC3)c2)c1 [Compound 51] | ++ | ++ | ++ | ++
CP(C)(=O)c1ccc(OCc2ccc(C(F)(F)F)cc2)c(-c2nccc(OC3COC3)n2)c1 [Compound 20] | ++ | ++ | +++ | ++
CP(C)(=O)c1ccc(Nc2ccc(C(F)(F)F)cc2)c(-c2ccn(C3CCOCC3)n2)c1 [Compound 25] | ++ | ++ | ++ | ++
CP(C)(=O)c1ccc(Nc2ccc(C(F)(F)F)cc2)c(-c2cnn(CC3COC3)c2)c1 [Compound 16] | ++ | ++ | +++ | +++
CP(C)(=O)c1ccc(Nc2ccc(C(F)(F)F)cc2)c(-c2nccc(OCCO)n2)c1 [Compound 19] | ++ | ++ | ++ | +
Cc1nc(-c2cc(P(C)(C)=O)ccc2NCc2ccc(C(F)(F)F)cc2)no1 [Compound 5] | ++ | +++ | ++++ | ++++
CP(C)(=O)c1ccc(NCc2cc(F)cc(F)c2)c(-c2nccc(OC3COC3)n2)c1 [Compound 62] | + | + | ++ | +
CP(C)(=O)c1ccc(NCc2cccc(C(F)(F)F)c2)c(-c2nccc(OC3COC3)n2)c1 [Compound 52] | + | ++ | ++ | ++
CP(C)(=O)c1ccc(Nc2ccc(C(F)(F)F)cc2)c(-c2nccc(OC(F)F)n2)c1 [Compound 65] | + | ++ | +++ | ++
CP(C)(=O)c1ccc(NCc2ccc(C(F)(F)F)cc2)c(-c2nccc(N3CCC(O)C3)n2)c1 (centres unmarked) [Compound 54] | + | + | ++ | ++
CP(C)(=O)c1ccc(NCC2CCC(C(F)(F)F)CC2)c(-c2ncccn2)c1 (centres unmarked) [Compound 46] | ++ | ++ | +++ | ++
O=P1(c2ccc(Nc3ccc(C(F)(F)F)cc3)c(-c3nccc(OC4COC4)n3)c2)CCNCC1 [Compound 60] | + | + | +++ | ++
CP(C)(=O)c1ccc(Nc2ccc(C(F)(F)F)cc2)c(-n2cc(C3CCOCC3)cn2)c1 [Compound 33] | + | + | ++ | ++
CP(C)(=O)c1ccc(Nc2ccc(C(F)(F)F)cc2)c(-c2ncn3ccccc23)c1 [Compound 40] | ++ | ++ | ++ | ++
CP(C)(=O)c1ccc(Nc2cccc(C(F)(F)F)c2)c(-c2nccc(OC3COC3)n2)c1 [Compound 13] | + | + | +++ | +

Structure (SMILES) | Δ T m (TEAD3) [1] | Δ T m (TEAD2) [2] | Δ T m (TEAD1) [3] | Δ T m (TEAD4) [4]
CP(C)(=O)c1ccc(Nc2ccc(Br)cc2)c(-c2nccc(OC3COC3)n2)c1 [Compound 26] | + | ++ | ++++ | ++++
CP(C)(=O)c1ccc(Nc2ccc(C(F)(F)F)cc2)c(-c2cn(C3COC3)cn2)c1 [Compound 70] | + | ++ | ++ | ++
CP(C)(=O)c1ccc(NC23CC(C(F)(F)F)(C2)C3)c(-c2nccc(OC3COC3)n2)c1 [Compound 37] | ++ | ++ | ++ | ++
CP(C)(=O)c1ccc(Nc2ccc(C(F)(F)F)cc2)c(-c2cn(C3COC3)nn2)c1 [Compound 41] | ++ | +++ | +++ | +++
CP(C)(=O)c1ccc(Nc2ccc(C(F)(F)F)cc2)c(-c2csc(OC3COC3)n2)c1 [Compound 71] | + | + | ++ | ++
CP(C)(=O)c1ccc(Nc2ccc(C(F)(F)F)cc2)c(-c2nnc(CO)o2)c1 [Compound 11] | + | ++ | +++ | ++
CP(C)(=O)c1ccc(Nc2ccc(C(F)(F)F)cc2)c(-c2nccc(OC3COC3)c2C#N)c1 [Compound 36] | + | + | ++ | +++
Cc1nnc(-c2cc(P(C)(C)=O)ccc2Nc2ccc(C(F)(F)F)cc2)o1 [Compound 69] | ++ | + | ++ | ++
CP(C)(=O)c1ccc(Nc2ccc(C(F)(F)F)cc2)c(-c2nnc(COC3COC3)o2)c1 [Compound 57] | + | + | ++ | +
CP(C)(=O)c1ccc(Nc2ccc(C(F)(F)F)cc2)c(-c2cn(Cc3ccccn3)cn2)c1 [Compound 2] | ++ | + | +++ | ++
CP(C)(=O)c1cnc(Nc2ccc(C(F)(F)F)cc2)c(-c2nccc(OC3COC3)n2)c1 [Compound 39] | + | + | ++++ | ++
CP(C)(=O)c1ccc(NCc2ccc(C(F)(F)F)cc2)c(-c2ncn(C3CCOCC3)n2)c1 [Compound 55] | + | + | ++ | ++
CP(C)(=O)c1ccc(Nc2ccc(C(F)(F)F)cc2)c(-c2ncn(C3CCOCC3)n2)c1 [Compound 34] | + | + | ++ | ++
CP(C)(=O)c1ccc(NCc2ccc(C(F)(F)F)cc2)c(-c2cn(C3COC3)cn2)c1 [Compound 47] | ++ | + | +++ | ++
Cn1cnc(-c2cc(P(C)(C)=O)ccc2NC2CCC(C(F)(F)F)CC2)c1 (centres unmarked) [Compound 63] | + | +++ | ++++ | +++
CP(C)(=O)c1ccc(Nc2cccc(OC(F)(F)F)c2)c(-c2nccc(OC3COC3)n2)c1 [Compound 67] | + | ++ | +++ | +++
